{"source": "patent US20250000855A1", "about": "“USE OF APOMORPHINE AS THERAPEUTIC AGENT FOR NECROPTOSIS-RELATED DISEASES” (INDUSTRY-ACADEMIC COOPERATION FOUNDATION, YONSEI UNIVERSITY, priority 2021, published 2025)", "tested_on": "MLKL oligomerization", "experiment": "MLKL oligomerization (tetramer and octamer bands) by non-reducing or reducing SDS-PAGE", "assay_type": "cell-based, human", "settings": "cytoplasmic and membrane fractions, necroptosis induced with TBZ, FIG. 2 / FIG. 6A", "method": "Cells were pretreated with Z-VAD (invivoGen, tlrl-vad) and a compound for 1 hour, and necroptosis was induced with TNF-α (ATGen, TNF0501) and BV6 (Biovision, B1332-5) for the indicated time. The prepared cells were appropriately treated according to analysis (Z-VAD: carbobenzoxy-valyl-alanyl-aspartyl, TNF-α: tumor necrosis factor-α, BV6: 4,4′-(1,6-hexanediyl)bis[N-methyl-L-alanyl-(2S)-2-cyclohexylglycyl-L-prolyl-β-phenyl-L-phenylalaninamide)\nCells were treated with a drug candidate and then collected using centrifugation at 4° C. and 1,500×g for 5 minutes. A supernatant was centrifuged again at 4° C. and 1,500×g for 5 minutes to remove remaining debris, concentrated at 4° C. and 14,000×g for 30 minutes using Amicon ultra-0.5 centrifugal filter unit 10K (Millipore, UFC501096), and stored. […] The extracted protein concentration was measured using a bicinchoninic acid (BCA) protein assay kit (Thermo Fisher Scientific, 23225). […]\nTo test whether the tetramer and octamer formation of p-MLKL for pore formation in the cell membrane is inhibited by apomorphine (APO), cells that had been treated with each molecule for the indicated time were separated into cytoplasmic and membrane fractions and analyzed through non-reducing or reducing sodium dodecyl sulfate-polyacrylamide gel electrophoresis (SDS-PAGE), and then investigated with specific antibodies (Experimental Method 1-6). […]", "data": [{"smiles": "CN1CCc2cccc3c2[C@H]1Cc1ccc(O)c(O)c1-3", "note": "[APO, apomorphine]", "values": [{"measurement": "intensities of the tetramer and octamer bands of MLKL", "result": "decreased"}]}]}
